This is an account of results in patent US7705009B2, “4-aminopyrimidine-5-thione derivatives” (Hoffman-La Roche Inc., priority 2005, dated 2010).

Experiment [1] relates to HCT116 colorectal carcinoma cell line. The experiment is described as follows: Tetrazolium dye proliferation assay (MTT assay). To be noted: Homo sapiens, HCT-116, HCT116 cells. Type of experiment: cell-based. On the procedure:
Proliferation was evaluated by the tetrazolium dye assay according to the procedure of Denizot and Lang (Denizot, F. and Lang, R. J Immunol Methods 1986, 89, 271-277). The cell line used was HCT116, a colorectal carcinoma cell line obtained from the American Type Cell Culture Collection (ATCC; Rockville, Md.). The cells were grown in McCoy's 5A medium supplemented with 10% FCS and L-glutamine.
Cells were plated at the appropriate seeding density to give logarithmic growth over the course of the assay in a 96-well tissue culture plate. Plates were incubated overnight at 37° C. in a humidified incubator with 5% CO2. The next day, test compounds were serially diluted to four times the final concentration in the appropriate medium containing 1.2% DMSO. One-fourth final volume of each dilution was added in duplicate to the plates containing cells. The same volume of 1.2% DMSO in medium was added to a row of “control wells” such that the final concentration of DMSO in each well was 0.3%. Wells to which no cells were added served as the “blank.” Wells to which no inhibitor was added served as “no inhibitor control.” The plates were) returned to the incubator, and at set time points (determined by their growth curves) plates were analyzed as described below.
3-(4,5-dimethylthiazole-2-yl)-2,5-diphenyl-2H-tetrazolium bromide (thiazolyl blue; MTT; Sigma) was added to each well to yield a final concentration of 1 mg/ml. Plates were returned to the incubator for 2.5-3 hours at 37° C. The MTT-containing medium was removed and the resulting formazan metabolite was solubilized in 100% ethanol with shaking for 15 minutes at room temperature. Absorbance readings were taken in a microtiter plate reader (Dynatech and Molecular Devices plate readers were used interchangeably) at a wavelength of 570 nm with a 650 nm reference. Percent inhibition (% INH) is calculated by subtracting the absorbance of the blank well from all wells, then subtracting the ratio of the average absorbance of each test duplicate (SAVE) by the average of the controls (CAVE) from 1.00. The final number is then multiplied by 100 (% INH=(1.00−SAVE/CAVE)×100). The concentration at which 50% inhibition of cell proliferation is obtained (the IC50) is determined from the linear regression of a plot of the logarithm of the concentration versus percent inhibition.

In a further experiment the target is human cyclin D1-CDK4 (Homo sapiens, UniProt P11802). In words: CDK4 HTRF kinase assay (Ki measurement). As to conditions: ATP at 3x Km. Type of experiment: biochemical. The procedure:
To determine inhibition of Cdk4, Cdk2 and Cdk1 activity, kinase assays were conducted using FlashPlateTM assays (NENTM-Life Science Products). […] W. Harper at the Baylor College of Medicine, Houston, Tex. Proteins were co-expressed in High FiveTM insect cells and the complex was purified on glutathione Sepharose resin (Pharmacia, Piscataway, N.J.) as previously described (Harper, J. W. et al. Cell 1993, 75, 805-816). A 6×-Histidine tagged […]) was used as the substrate for the cycD1-CDK4, cycB-CDK1 and the cycE-CDK2 assays (the expression plasmid was provided by Dr. Veronica Sullivan, Department of Molecular Virology, Roche Research Centre, Welwyn Garden City, United Kingdom). The Rb protein is a natural substrate for phosphorylation by CDK4, CDK2 and CDK1 (see Herwig and Strauss Eur. J. Biochem. Vol. 246 (1997) pp. 581-601 and the references cited therein). Alternatively, inhibition activity may be measured using Ki. Using the protein constructs described above in Example 19A above, CDK1, CDK2, and CDK4 HTRF assays were set up. These were done in 96-well format and read in 384-well plate format. The assays were run at 3× their respective Kms for ATP. In the CDK4 assay, test compounds were diluted to 3× their final concentrations in 25 mM Hepes, pH 7.0, 6.25 mM MgCl2, 1.5 mM DTT, 135 μM ATP. The DMSO concentration was no greater than 4.76%. Twenty microliters were added to the wells of a 96-well plate. The kinase reaction was initiated by the addition of 40 μl/well of a solution containing 0.185 μM Rb and 2.25 μg/ml CDK4 in 25 mM Hepes, pH 7.0, 6.25 mM MgCl2, 0.003% Tween-20, 0.3 mg/ml BSA, 1.5 mM DTT. Blank wells without CDK4 were included. The plates were incubated at 37° C. for 30 minutes with shaking. The kinase reaction was terminated by the addition of 15 μl/well of 1.6 uM anti-phospho-Rb ([…]) antibody (Cell Signaling Inc.) in 25 mM Hepes, pH 7.0, 24 mM EDTA, 0.2 mg/ml BSA. After 30 minutes at 37° C., 15 μl/well of 3 nM Lance-Eu-W1024 labeled anti-rabbit IgG and 60 nM Allophycocyanin conjugated anti-His6 (PerkinElmer Life Sciences) in 25 mM Hepes, pH 7.0, 0.5 mg/ml BSA were added. Following a one hour incubation at 37 deg C., 35 μl of each well, in duplicate, were transferred to 384-well black plates. The plates were read using either ViewLux or Victor V readers (PerkinElmer Life Sciences) using an excitation wavelength of 340 nm and dual emission wavelengths of 615 nm and 665 nm. IC50 values (the concentration of test compounds reducing the assay control fluorescence read-out by 50%) were first calculated from net readings at 665 nm, normalized for europium readings at 615 nm. For ATP competitive inhibitors, the Ki values were calculated according to the following equation: […]
On the technique in general: TR-FRET usually uses a lanthanide donor and a delayed reading to cut background.

The target in another experiment is human cyclin B-CDK1 (Homo sapiens, UniProt P06493). In words: CDK1 HTRF kinase assay (Ki measurement). Type of experiment: biochemical. As to conditions: ATP at 3x Km. On the procedure:
(§1) To determine inhibition of Cdk4, Cdk2 and Cdk1 activity, kinase assays were conducted using FlashPlate™ assays (NEN™-Life Science Products). FlashPlate assays were performed using recombinant human cyclin B-CDK1, human cyclin E-CDK2 or human cyclin D1-CDK4 complexes. GST-cyclinE (GST-cycE), CDK2, GST-cyclinB (GST-cycB), CDK1, GST-CDK4 and cyclin D1 (cycD1) cDNA clones in baculovirus vectors were provided by Dr. W. Harper at the Baylor College of Medicine, Houston, Tex.
(§2) Alternatively, inhibition activity may be measured using Ki. […] These were done in 96-well format and read in 384-well plate format. The assays were run at 3× their respective Kms for ATP.
Twenty microliters were added to the wells of a 96-well plate. […] Blank wells without CDK4 were included. The plates were incubated at 37° C. for 30 minutes with shaking. […] After 30 minutes at 37° C., 15 μl/well of 3 nM Lance-Eu-W1024 labeled anti-rabbit IgG and 60 nM Allophycocyanin conjugated anti-His6 (PerkinElmer Life Sciences) in 25 mM Hepes, pH 7.0, 0.5 mg/ml BSA were added. Following a one hour incubation at 37 deg C., 35 μl of each well, in duplicate, were transferred to 384-well black plates. The plates were read using either ViewLux or Victor V readers (PerkinElmer Life Sciences) using an excitation wavelength of 340 nm and dual emission wavelengths of 615 nm and 665 nm. […] For ATP competitive inhibitors, the Ki values were calculated according to the following equation: Ki=IC50/(1+S/Km) where S refers to the substrate concentration and Km refers to the Michaelis-Menten constant.
(§3) The CDK1 and CDK2 assays were similarly run except for small differences in reagent and protein concentrations:
The compound and enzyme buffers for both assays contained 10 mM MgCl2. […] CDK1 at a reagent concentration of 0.15 ng/ul and CDK2 at a reagent concentration of 0.06 ng/ul were used.

The target of the next experiment is human cyclin E-CDK2 (Homo sapiens, UniProt P24941). The experiment is described as follows: CDK2 HTRF kinase assay (Ki measurement). Type of experiment: biochemical. The procedure: as §1, §2
Twenty microliters were added to the wells of a 96-well plate. […] Blank wells without CDK4 were included. The plates were incubated at 37° C. for 30 minutes with shaking. […] After 30 minutes at 37° C., 15 μl/well of 3 nM Lance-Eu-W1024 labeled anti-rabbit IgG and 60 nM Allophycocyanin conjugated anti-His6 (PerkinElmer Life Sciences) in 25 mM Hepes, pH 7.0, 0.5 mg/ml BSA were added. Following a one hour incubation at 37 deg C., 35 μl of each well, in duplicate, were transferred to 384-well black plates. The plates were read using either ViewLux or Victor V readers (PerkinElmer Life Sciences) using an excitation wavelength of 340 nm and dual emission wavelengths of 615 nm and 665 nm.
as §3
The compound and enzyme buffers for both assays contained 10 mM MgCl2.

Where [2] appears, read: HTRF assay, ATP at 3x Km, read-out: Ki CDK2.

The structures appear in SMILES notation. Where two headings read alike, the source gives them in different places.

Sequence of human cyclin D1-CDK4 (P11802 whole entry): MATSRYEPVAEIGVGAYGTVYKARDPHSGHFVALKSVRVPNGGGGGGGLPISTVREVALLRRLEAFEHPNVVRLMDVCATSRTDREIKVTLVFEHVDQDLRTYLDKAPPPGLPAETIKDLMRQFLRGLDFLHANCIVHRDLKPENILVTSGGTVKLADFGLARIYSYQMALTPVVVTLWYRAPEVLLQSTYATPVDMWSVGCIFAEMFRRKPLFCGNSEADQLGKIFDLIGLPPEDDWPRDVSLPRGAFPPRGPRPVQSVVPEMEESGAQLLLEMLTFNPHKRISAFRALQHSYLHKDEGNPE
Sequence of human cyclin D1-CDK4 (P24385 whole entry partner): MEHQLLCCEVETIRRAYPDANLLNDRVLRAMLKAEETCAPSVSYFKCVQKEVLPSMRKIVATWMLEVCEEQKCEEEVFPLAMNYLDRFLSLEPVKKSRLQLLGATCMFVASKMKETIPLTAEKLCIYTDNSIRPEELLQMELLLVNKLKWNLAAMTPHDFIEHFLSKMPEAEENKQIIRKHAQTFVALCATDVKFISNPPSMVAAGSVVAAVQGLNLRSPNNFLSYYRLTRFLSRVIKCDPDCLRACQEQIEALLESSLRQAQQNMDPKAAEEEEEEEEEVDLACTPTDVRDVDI
Sequence of human cyclin B-CDK1 (P06493 whole entry): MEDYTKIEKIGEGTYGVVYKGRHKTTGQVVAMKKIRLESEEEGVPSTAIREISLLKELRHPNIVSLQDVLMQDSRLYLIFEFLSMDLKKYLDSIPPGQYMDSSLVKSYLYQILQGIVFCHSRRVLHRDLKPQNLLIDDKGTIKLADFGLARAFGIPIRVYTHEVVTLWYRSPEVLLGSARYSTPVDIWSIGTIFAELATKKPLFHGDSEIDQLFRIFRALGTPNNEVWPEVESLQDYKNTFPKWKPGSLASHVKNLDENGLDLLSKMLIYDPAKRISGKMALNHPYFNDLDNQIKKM
Sequence of human cyclin B-CDK1 (P14635 whole entry partner): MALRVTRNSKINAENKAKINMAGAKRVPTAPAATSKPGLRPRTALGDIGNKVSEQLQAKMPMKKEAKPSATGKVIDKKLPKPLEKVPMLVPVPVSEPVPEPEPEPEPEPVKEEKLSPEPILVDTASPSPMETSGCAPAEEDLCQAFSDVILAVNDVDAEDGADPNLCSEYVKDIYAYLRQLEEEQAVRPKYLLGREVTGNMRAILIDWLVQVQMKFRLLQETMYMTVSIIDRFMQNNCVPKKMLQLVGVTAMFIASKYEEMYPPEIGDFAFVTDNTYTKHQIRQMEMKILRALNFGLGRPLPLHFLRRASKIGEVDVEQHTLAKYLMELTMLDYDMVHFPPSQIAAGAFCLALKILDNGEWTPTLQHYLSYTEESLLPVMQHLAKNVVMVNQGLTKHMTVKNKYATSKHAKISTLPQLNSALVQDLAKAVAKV

`COc1ccc(F)c(F)c1C(=S)c1cnc(N[C@H]2CC[C@H](N(C)S(C)(=O)=O)CC2)nc1N` [Example 3, N-{4-[4-Amino-5-(2,3-difluoro-6-methoxy-thiobenzoyl)-pyrimidin-2-ylamino]-cyclohexyl}-N-methylmethanesulfonamide]: in experiment [1], half-maximal inhibition (IC50) required 13 nM. Besides, the inhibitory constant (Ki) (commonly the dissociation constant of the complex between target and ligand, obtained from inhibition or displacement) at human cyclin D1-CDK4 was found to be 1.33 nM; at human cyclin B-CDK1, 0.42 nM; at human cyclin E-CDK2 (setting [2]) it was 0.27 nM.

In the case of `COc1ccc(F)cc1C(=S)c1cnc(NC2CCN(S(C)(=O)=O)CC2)nc1N` [Example 5, [4-Amino-2-(1-methanesulfonyl-piperidin-4-ylamino)-pyrimidin-5-yl]-(5-fluoro-2-methoxy-phenyl)-methanethione], the half-maximal inhibitory concentration (IC50) (in general, the concentration that gives 50% inhibition) in experiment [1] was found to be 81 nM. Further, the inhibition constant Ki was 1.3 nM at human cyclin D1-CDK4, less than 10 nM on human cyclin B-CDK1 and 1.3 nM on human cyclin E-CDK2.

For `CS(=O)(=O)N1CCC(Nc2ncc(C(=S)c3c(Cl)ccc(F)c3F)c(N)n2)CC1` [Example 13, [4-Amino-2-(1-methanesulfonyl-piperidin-4-ylamino)-pyrimidin-5-yl]-(6-chloro-2,3-difluoro-phenyl)-methanethione], the IC50 in experiment [1] is 176 nM. Further, the Ki at human cyclin D1-CDK4 was 3 nM; at human cyclin B-CDK1, 3 nM; on human cyclin E-CDK2 (setting [2]) it was 1 nM.

Consider `CS(=O)(=O)N1CCC(Nc2ncc(C(=S)c3c(F)cccc3F)c(N)n2)CC1` [Example 15, [4-Amino-2-(1-methanesulfonyl-piperidin-4-ylamino)-pyrimidin-5-yl]-(2,6-difluoro-phenyl)-methanethione], for which the IC50 in experiment [1] came to 171 nM. The inhibition constant Ki at human cyclin D1-CDK4 was 1 nM; at human cyclin B-CDK1, 3 nM; on human cyclin E-CDK2 it was 1 nM.

In experiment [1], `CS(=O)(=O)N1CCC(Nc2ncc(C(=S)c3c(F)c(F)cc4ccoc34)c(N)n2)CC1` [Example 6, [4-Amino-2-(1-methanesulfonyl-piperidin-4-ylamino)-pyrimidin-5-yl]-(5,6-difluoro-benzofuran-7-yl)-methanethione] gave an IC50 of 13 nM. The Ki on human cyclin D1-CDK4 was 0.26 nM; at human cyclin B-CDK1, 3 nM; on human cyclin E-CDK2 (setting [2]) it was 0.1 nM.

As to `COc1ccc(F)c(F)c1C(=S)c1cnc(Nc2ccc(S(N)(=O)=O)cc2)nc1N` [Example 14, 4-[4-Amino-5-(2,3-difluoro-6-methoxy-thiobenzoyl)-pyrimidin-2-ylamino]-benzenesulfonamide], the half-inhibitory concentration (IC50) in experiment [1] came to 32 nM. Moreover, the values for the Ki on human cyclin D1-CDK4, on human cyclin B-CDK1 and on human cyclin E-CDK2 (setting [2]) were 3 nM, 3 nM and 1 nM, respectively.

In experiment [1], `COc1ccc(F)c(F)c1C(=S)c1cnc(NC2CCN(S(N)(=O)=O)CC2)nc1N` [Example 4, 4-[4-Amino-5-(2,3-difluoro-6-methoxy-thiobenzoyl)-pyrimidin-2-ylamino]-piperidine-1-sulfonic acid amide] returned an IC50 of 3 nM. Also, the inhibition constant (Ki) at human cyclin D1-CDK4 is less than 1 nM; at human cyclin B-CDK1 it was less than 3 nM; at human cyclin E-CDK2 (setting [2]) it was less than 1 nM.
